Measurements as given in patent US11053204B2, “Pyrimidinyloxy benzene derivatives as herbicides” (FMC Corporation, priority 2015, dated 2021).

Tests used:
Format in all cases: in vivo
[1] = system: pigweed (Amaranthus retroflexus); test: Test C postemergence, plant response rating; settings: for Plant response rating, Pigweed / pest or weed control at 16 g/ha / pest or weed control at 31 g/ha: scale 0 to 100; for Pigweed plant response rating / pest or weed control at 62 g/ha / pest or weed control at 125 g/ha: scale 0 to 100 (0 no effect, 100 complete control)
Method in brief: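 Greenhouse plants rated visually against untreated controls 13–15 d after treatment, scale 0 = no effect to 100 = complete control. Postemergence sprays went onto potted plants 2–18 cm tall (1–4 leaves); preemergence sprays onto soil freshly sown in loam–sand or silt loam, chemicals formulated in non-phytotoxic solvent with surfactant.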

[2] = system: barnyardgrass (Echinochloa crus-galli); test: Test C preemergence, plant response rating; settings: for pest or weed control at 16 g/ha / pest or weed control at 31 g/ha / pest or weed control at 62 g/ha / pest or weed control at 125 g/ha: Echinochloa crus-galli, pre-emergence, Preemergence; for pest or weed control at 16 g/ha: 16 g ai/ha; for pest or weed control at 16 g/ha / pest or weed control at 31 g/ha / Barnyardgrass plant response rating: scale 0 to 100; for pest or weed control at 31 g/ha: 31 g ai/ha; for Barnyardgrass plant response rating: preemergence; for pest or weed control at 62 g/ha: 62 g ai/ha; for pest or weed control at 62 g/ha / pest or weed control at 125 g/ha: scale of 0 to 100; for pest or weed control at 125 g/ha: 125 g ai/ha
[3] = system: galium (catchweed bedstraw, Galium aparine); test: Test C preemergence, plant response rating
[4] = Amaranthus retroflexus, post-emergence, 16 g ai/ha
[5] = Amaranthus retroflexus, post-emergence, 31 g ai/ha
[6] = Amaranthus retroflexus, post-emergence, 62 g ai/ha
[7] = Amaranthus retroflexus, post-emergence, 125 g ai/ha

| SMILES | Plant response rating, Pigweed ([1]; 16 g ai/ha) | Plant response rating, Pigweed ([1]; 31 g ai/ha) | Pigweed plant response rating ([1]; 62 g ai/ha) | Pigweed plant response rating ([1]; 125 g ai/ha) | pest or weed control at 16 g/ha [2] [%] | pest or weed control at 31 g/ha [2] [%] | Barnyardgrass plant response rating ([2]; 4 g ai/ha) | Barnyardgrass plant response rating ([2]; 8 g ai/ha) | pest or weed control at 4 g/ha ([1]; Amaranthus retroflexus, post-emergence, 4 g ai/ha, scale of 0 to 100) [%] | pest or weed control at 8 g/ha ([1]; Amaranthus retroflexus, post-emergence, 8 g ai/ha, scale of 0 to 100) [%] | pest or weed control at 16 g/ha [1, 4] [%] | pest or weed control at 31 g/ha [1, 5] [%] | pest or weed control at 62 g/ha [2] [%] | pest or weed control at 125 g/ha [2] [%] | pest or weed control at 62 g/ha [1, 6] [%] | pest or weed control at 125 g/ha [1, 7] [%] | Plant response rating, Galium ([3]; 16 g ai/ha, scale 0 to 100) | Plant response rating, Galium ([3]; 31 g ai/ha, scale 0 to 100) | Plant response rating, Galium ([3]; 62 g ai/ha, scale of 0 to 100) | Plant response rating, Galium ([3]; 125 g ai/ha, scale of 0 to 100) |
| --- | --- | --- | --- | --- | --- | --- | --- | --- | --- | --- | --- | --- | --- | --- | --- | --- | --- | --- | --- | --- |
| N#CCCOC(=O)c1c(Br)cccc1Oc1ncc(Cl)cn1 [Compound 7] | 35 | 40 | 60 | 70 |  |  |  |  |  |  |  |  |  |  |  |  |  |  |  |  |
| CCCOC(=O)c1c(Br)cccc1Oc1ncc(Cl)cn1 [Compound 13, propyl 2-bromo-6-[(5-chloro-2-pyrimidinyl)oxy]benzoate] |  |  |  |  | 10 | 40 | 0 | 0 | 30 | 60 | 75 | 70 |  |  |  |  |  |  |  |  |
| O=C(OCCC(F)(F)F)c1c(Cl)cccc1Oc1ncc(Cl)cn1 [Compound 15, 3,3,3-trifluoropropyl 2-chloro-6-[(5-chloro-2-pyrimidinyl)oxy]benzoate] |  |  |  |  | 10 | 85 |  |  |  |  | 90 | 90 | 100 | 100 | 95 | 98 |  |  |  |  |
| CC(CC(F)(F)F)OC(=O)c1c(Br)cccc1Oc1ncc(Cl)cn1 (stereo not shown) [Compound 16, 3,3,3-trifluoro-1-methylpropyl 2-bromo-6-[(5-chloro-2-pyrimidinyl)oxy]benzoate] |  |  |  |  | 0 | 15 |  |  |  |  | 50 | 75 | 30 | 75 | 85 | 50 |  |  |  |  |
| O=C(OCCCC(F)(F)F)c1c(Br)cccc1Oc1ncc(Cl)cn1 [Compound 20, 4,4,4-trifluorobutyl 2-bromo-6-[(5-chloro-2-pyrimidinyl)oxy]benzoate] |  |  |  |  | 0 | 5 |  |  |  |  | 85 | 95 | 30 | 85 | 98 | 95 | 10 | 0 | 80 | 95 |
| C=CCCOC(=O)c1c(Br)cccc1Oc1ncc(Cl)cn1 [Compound 21, 3-buten-1-yl 2-bromo-6-[(5-chloro-2-pyrimidinyl)oxy]benzoate] |  |  |  |  | 10 | 55 |  |  |  |  | 85 | 75 | 90 | 98 | 90 | 90 |  | 0 | 5 | 100 |
| C=CCOC(=O)c1c(Br)cccc1Oc1ncc(Cl)cn1 [Compound 22, 2-propen-1-yl 2-bromo-6-[(5-chloro-2-pyrimidinyl)oxy]benzoate] |  |  |  |  |  |  |  |  |  |  | 60 | 70 |  |  | 70 | 95 |  |  |  |  |
